# Results as given in PMC545074, “The two neutrophil members of the formylpeptide receptor family activate the NADPH-oxidase through signals that differ in sensitivity to a gelsolin derived phosphoinositide-binding peptide” (BMC Cell Biology, 2004).
# Read-outs that look alike come from different tables or passages of the source. Where a SMILES comes first, the peptide text is derived from it. Where no end group is shown, it is not given here. The star is where a group is joined. RhodamineB = CCN(CC)c1ccc2c(-c3ccccc3C(=O)*)c3ccc(=[N+](CC)CC)cc-3oc2c1
# How the values were obtained:
# FPR [1] = assay: Neutrophil NADPH-oxidase activity (superoxide anion release, isoluminol-enhanced chemiluminescence) induced through FPR; assay type: cell-based, human; conditions: for Effect on fMLF induced NADPH-oxidase activity (superoxide production): FPR stimulated by fMLF, concentration of test substance not given, data not shown
# Procedure: (§1) Neutrophil granulocytes were isolated from buffy coats obtained from healthy adults. After dextran sedimentation at 1 × g, hypotonic lysis of the remaining erythrocytes, and centrifugation in a Ficoll-Paque gradient, the neutrophils were washed twice and resuspended (1 × 10^7 /ml) in Krebs-Ringer phosphate buffer containing glucose (10 mM), Ca^2+ (1 mM), and Mg^2+ (1.5 mM) (KRG; pH 7.3). The cells were stored on melting ice and used within 120 min of preparation.
# (§2) Neutrophil production and release of superoxide anions was measured by means of an isoluminol-enhanced chemiluminescence (CL) assay. The CL activity was measured in a six-channel Biolumat LB 9505 apparatus (Berthold Co., Wildbad, Germany), using disposable 4-ml polypropylene tubes with a 900-μl reaction mixture containing 10^5–10^6 neutrophils, horseradish peroxidase (4 U) and isoluminol (20 μM) with and without cytochalasin B or PBP10. The measuring tubes were equilibrated for 5 to 10 minutes at 37°C and the cells were activated by addition of a receptor specific peptide agonist, fMLF for FPR and WKYMVM for FPRL1. The light emission was recorded continuously. Details about the CL technique are given in [45].
# FPRL1 [2] = target: T1, FPRL1 (Homo sapiens, UniProt P25090); assay: Cytosolic calcium mobilization in neutrophils (Fura-2 fluorescence), FPRL1 agonist WKYMVM; assay type: cell-based
# T1 construct: Neutrophil granulocytes were isolated from buffy coats obtained from healthy adults; endogenous in cells; host or cells: human neutrophil granulocytes from buffy coats of healthy adults
# T1 sequence (P25090 1-351): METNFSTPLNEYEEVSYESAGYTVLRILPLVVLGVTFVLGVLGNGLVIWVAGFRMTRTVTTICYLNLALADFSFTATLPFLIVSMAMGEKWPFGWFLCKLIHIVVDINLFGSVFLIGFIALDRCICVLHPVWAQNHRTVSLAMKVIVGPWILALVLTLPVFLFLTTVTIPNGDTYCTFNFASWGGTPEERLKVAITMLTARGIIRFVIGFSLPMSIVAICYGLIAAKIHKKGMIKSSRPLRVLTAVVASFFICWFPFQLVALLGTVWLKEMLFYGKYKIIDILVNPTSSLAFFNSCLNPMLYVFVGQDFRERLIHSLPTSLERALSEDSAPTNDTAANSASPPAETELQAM
# Procedure: as §1
# (§3) Neutrophils at a density of 2 × 10^7/ml in Ca^2+-free KRG supplemented with bovine serum albumin (BSA, 0.1%) were incubated with the acetoxymethylated derivative fura-2/AM (2 μM) at room temperature for 30 minutes. The cells were washed twice and resuspended in KRG, adjusted to 2 × 10^7/ml and kept protected from light on ice until use. Cells with or without PBP10 were equilibrated for 5 minutes at 37°C, after which the peptide agonist was added. The fura-2 fluorescence was followed with a luminescence spectrometer (LS50B; Perkin Elmer Corp.) using excitation wavelengths of 340 nm and 380 nm, and an emission wavelength of 510 nm and the [Ca^2+]i was calculated as described earlier.
# [3] = set-up: method as in earlier work; conditions: cited from earlier work
# FPR [4] = assay: Mobilization of CR3 to the neutrophil cell surface (FACS), fMLF induced; assay type: cell-based, human; conditions: PBP10 1 μM at 37°C for 5 minutes, then fMLF 100 nM for 10 minutes, four independent experiments
# Procedure: as §1
# (§4) The exposure of CR3 (CD11b/CD18) on the neutrophil cell surface was assessed by immunostaining and FACS-analysis. Cells challenged with peptide agonists with or without PBP10 were fixed with ice-cold paraformaldehyde and washed with FACSwash (PBS, 0.02% NaN3), after which the cells were incubated at 4°C with phycoerythrin-conjugated anti-CR3 antibodies (CD11b; Becton Dickinson 10 μl/10^6 cells) before analysis using a FACScan (Becton Dickinson, Mountain View, CA).
# FPRL1 [5] = target: T1, FPRL1; assay: Mobilization of CR3 to the neutrophil cell surface (FACS), WKYMVM induced; assay type: cell-based; conditions: PBP10 1 μM at 37°C for 5 minutes, then WKYMVM 100 nM for 10 minutes, four independent experiments
# Procedure: as §1, §4
# FPRL1 [6] = target: T1, FPRL1; assay: Neutrophil NADPH-oxidase activity (superoxide anion release, isoluminol-enhanced chemiluminescence) induced through FPRL1; assay type: cell-based; conditions: for Effect on WKYMVM induced NADPH-oxidase activity (superoxide production): FPRL1 stimulated by WKYMVM, concentration of test substance not given, antagonists and rhodamine: data not shown
# Procedure: as §1, §2
# FPR [7] = assay: Cytosolic calcium mobilization in neutrophils (Fura-2 fluorescence), FPR agonist fMLF; assay type: cell-based, human
# Procedure: as §1, §3
# [8] = system: plasma membrane of neutrophils and other cells; conditions: cited from earlier work
# FPRL1 [9] = target: T1, FPRL1; set-up: method as in PMID 15147563; conditions: cited from earlier work
# FPR [10] = system: FPR; set-up: method as in PMID 15147563; conditions: cited from earlier work
# PKC = assay: Neutrophil NADPH-oxidase activity induced by the receptor independent PKC activator PMA; assay type: cell-based, human; conditions: neutrophils incubated 120 minutes with PTX 500 ng/ml, then PMA 100 nM
# [11] = human neutrophils, 100 nM, Fura-2
compound,measurement,setting,value
"CCN(CC)c1ccc2c(-c3ccccc3C(=O)N[C@@H](CCC(N)=O)C(=O)N[C@@H](CCCNC(=N)N)C(=O)N[C@@H](CC(C)C)C(=O)N[C@@H](Cc3ccccc3)C(=O)N[C@@H](CCC(N)=O)C(=O)N[C@H](C(=O)N[C@@H](CCCCN)C(=O)NCC(=O)N[C@@H](CCCNC(=N)N)C(=O)N[C@@H](CCCNC(=N)N)C(=O)O)C(C)C)c3ccc(=[N+](CC)CC)cc-3oc2c1 [PBP10, rhodamine-B-QRLFQVKGRR] (RhodamineB-QRLFQVKGRR-OH; C-terminus assumed)",Effect on the FPR-mediated NADPH-oxidase response in the presence of cytochalasin B,"FPR [1]; cytochalasin B 2.5 μg/ml, fMLF 100 nM, PBP10 5 μM (higher concentrations required)",only partly inhibited
same,Effect on the fMLF induced NADPH-oxidase activity,"FPR [1]; human neutrophils, PBP10 at concentrations up to 10 μM prior to activation with fMLF, isoluminol chemiluminescence",no effect
same,Effect on the calcium response induced by WKYMVM,"FPRL1 [2]; PBP10 1 μM, 5 minutes at 37°C prior to WKYMVM 100 nM, Fura-2, representative experiment",did not alter
same,PIP2 binding,[3],PIP2 binding capacity
same,Effect on FPR induced granule mobilization (CR3 exposure),FPR [4],without effect
same,Effect on WKYMVM induced secretory response (mobilization of CR3 to the cell surface),FPRL1 [5],blocked
same,IC50,FPRL1 [6],50 nM
same,Effect on NADPH-oxidase activity induced by WKYMVM in the presence of cytochalasin B,"FPRL1 [6]; cytochalasin B 2.5 μg/ml, WKYMVM 100 nM",largely inhibited
same,Effect on WKYMVM induced NADPH-oxidase activity (superoxide production),FPRL1 [6]; human neutrophils,totally inhibited
same,Effect on the calcium response induced by fMLF,"FPR [7]; PBP10 1 μM, 5 minutes at 37°C prior to fMLF 100 nM, Fura-2, representative experiment",did not alter
same,Membrane permeability (ability to cross the plasma membrane),[8]; neutrophils and other cells,membrane permeable
COC[C@H]1OC(=O)c2coc3c2[C@@]1(C)C1=C(C3=O)[C@@H]2CCC(=O)[C@@]2(C)C[C@H]1OC(C)=O [Wortmannin],Effect of the PI3K inhibitor on oxidase activity induced by fMLF,"FPR [1]; neutrophils incubated with different concentrations at 37°C for 30 minutes, then fMLF 100 nM, representative experiment",largely inhibited
same,Effect of the PI3K inhibitor on oxidase activity induced by WKYMVM,"FPRL1 [6]; neutrophils incubated with different concentrations at 37°C for 30 minutes, then WKYMVM 100 nM, representative experiment",largely inhibited
C=C1[C@@H](C)[C@H]2[C@H](Cc3ccccc3)NC(=O)[C@]23OC(=O)/C=C/[C@H](O)CCC[C@@H](C)C/C=C/[C@H]3[C@@H]1O [cytochalasin B],Effect of cytochalasin B on the transient rise in intracellular calcium induced by active FPRL1,FPRL1 [2]; data not shown,not affected
same,Effect of cytochalasin B on the neutrophil response to FPRL1 agonists,FPRL1 [9],augmented and prolonged
same,Effect of cytochalasin B on the neutrophil response to FPR agonists,FPR [10],augmented and prolonged
same,Effect of cytochalasin B on the transient rise in intracellular calcium induced by active FPR,FPR [7]; data not shown,not affected
"N-formyl-Met-Leu-Phe [fMLF, prototype FPR agonist]",Agonist-induced oxidative burst (release of superoxide anions) through FPR,FPR [1],robust oxidative burst
same,Agonist-induced change in cytosolic calcium through FPR,FPR [7]; [11],rapid and transient increase
QRLFQVKGRR,PIP2 binding,[3],same PIP2-binding characteristics as PBP10
same,Effect of the unconjugated peptide on the WKYMVM induced neutrophil oxidase activity,"FPRL1 [6]; 1 μM final concentration, 37°C for 5 minutes, then WKYMVM 100 nM",no effect
same,Membrane permeability (ability to cross the plasma membrane),[8],lacks the ability to cross the plasma membrane
Rh-VKGRRG (RhodamineB-VKGRRG) [truncated rhodamine labeled peptide],IC50,"FPRL1 [6]; human neutrophils treated with the peptide prior to activation with WKYMVM, superoxide release by isoluminol chemiluminescence, 37°C, Fig 1D three independent experiments, read-out: IC50 value for the WKYMVM induced NADPH-oxidase response",1000 nM
"Trp-Lys-Tyr-Met-Val-Met-NH2 [WKYMVM, FPRL1 specific hexapeptide agonist]",Agonist-induced change in cytosolic calcium through FPRL1,FPRL1 [2]; [11],rapid and transient increase
same,Agonist-induced oxidative burst (release of superoxide anions) through FPRL1,"FPRL1 [6]; human neutrophils, 100 nM and 20 nM shown in Fig 1A",robust oxidative burst
WRWWWW [FPRL1 specific antagonist],Effect on fMLF induced NADPH-oxidase activity (superoxide production),FPR [1]; human neutrophils,not affected
same,Effect on WKYMVM induced NADPH-oxidase activity (superoxide production),FPRL1 [6]; human neutrophils,totally inhibited
cyclosporine H,Effect on fMLF induced NADPH-oxidase activity (superoxide production),FPR [1]; human neutrophils,totally inhibited
same,Effect on WKYMVM induced NADPH-oxidase activity (superoxide production),FPRL1 [6]; human neutrophils,without effect
pertussis toxin,Effect of pertussis toxin on the FPR mediated oxidase response,"FPR [1]; neutrophils incubated 120 minutes with PTX 500 ng/ml, then fMLF 100 nM",inhibited
same,Effect of pertussis toxin on oxidase activity induced by PMA,PKC,no reduction
same,Effect of pertussis toxin on the FPRL1 mediated oxidase response,"FPRL1 [6]; neutrophils incubated 120 minutes with PTX 500 ng/ml, then WKYMVM 100 nM",inhibited
